Results taken from patent publication EP3492066A1, “COSMETIC PREPARATIONS HAVING A CALMING EFFECT” (Beiersdorf AG, priority 2010, dated 2012).

Legend:
Probandinnen [1] = experiment: Olfactometer test with psychophysiological measurement (blood volume pulse amplitude, heart rate) versus placebo; type: in vivo, Menschen; settings: for Blutvolumenpuls Amplitude (Abbildung 1): 0,025% Tetrahydro-6-pentyl-2H-pyran-2-one (N=9), 0,075% 2,6-Dimethyl-7-octen-2-ol (N=10), gegenüber Placebokontrolle Propylenglycol (N=10); for Blutvolumenpuls Amplitude: gegenüber der Placebokontrolle (Propylenglykol), 5 min fragrance by olfactometer; for Änderung der Herzrate: normalised
Text: Es wurde in weiteren Tests die beruhigende Wirkung der Duftstoffe 6-Methyl-5-Hepten-2-one, Octan-2-one, Heptan-2-one, Nonan-2-one, 5-hexyldihydro-5-methyl-2(3H)-furanone, Tetrahydro-6-pentyl-2H-pyran-2-one, Octanal und 2,6-Dimethyl-7-octen-2-ol auf den Menschen untersucht. Dazu wurde ein Testdesign gewählt, bei dem mit Hilfe eines Olfaktometers (Burghart) kosmetisch einsetzbare und kommerziell erhältliche Duftstoffe an die Nase des Probanden gebracht wurden. Die Duftstoffe wurden in Propylenglykol (Caelo) gelöst. Als Placebokontrolle wurde entsprechend ebenfalls Propylenglykol eingesetzt
Die Probandinnen wurden in einer bequemen, leicht nach hinten gelehnten Haltung auf einem Sessel platziert. Das Ende des Olfaktometerschlauches wurde im Abstand von etwa 10 cm vor der Nase des Probanden platziert und mit Hilfe eines Stativs fixiert. Der Versuchsaufbau (Nexus, Olfaktometer) wurde von den Probandinnen mit Hilfe einer spanischen Wand abgeschirmt, um die Teilnehmerinnen nicht durch das Messgeschehen abzulenken. Die Messungen fanden in einem hellen, gut gelüfteten, auf 21°C temperierten Raum statt.
An den Untersuchungen nahmen Probandinnen im Alter von 20 bis 40 Jahren teil. Das Durchschnittsalter betrug 31 Jahre. Die Probandinnen besaßen einen BMI zwischen 19 und 25. Die Probandinnen wurden gebeten, einen Tag vor Studienbeginn auf Parfum und Body Lotion zu verzichten. Am Messtag selbst durften die Teilnehmerinnen weder Parfum, noch parfümierte Deoprodukte, Body Lotions, Gesichtscreme, Handcreme und Haarspray benutzen. Sie mussten auf Kaffee, Schwarztee, Fruchtsäfte und Zigaretten verzichten und durften 30 min vor Testbeginn nichts mehr essen und ausschließlich Wasser trinken.
Die Einstellungen am Olfaktometer sahen einen Luftstrom von 4 L/min vor. Die externe Druckluft betrug 2 bar. Die Probandinnen wurden mit den entsprechenden Messelektroden bestückt und akklimatisierten zunächst für 1 min. Diese Zeit wurde gleichzeitig genutzt, um sicherzustellen, dass sich die Elektroden zur Bestimmung psychophysiologischer Parameter in einem schwankungsfreien und messbereiten Zustand befinden. Alle Probandinnen erhielten im Anschluss für 5 min Kontrollluft ohne Duft. Während dieser Zeit sollten alle Probandinnen einen emotional neutralen Zustand erreichen. Anschließend erhielten die Probandinnen für 5 min einen Duftstoff, der so niedrig konzentriert war, dass er nicht unangenehm oder gar stechend empfunden wurde. Alle Duftstoffe wurden in Propylenglykol gelöst. Als Placebokontrolle diente ebenfalls Propylenglykol. Während der gesamten 10 min wurden die psychophysiologischen Messparameter dermale Aktivität, Herzrate und Blutvolumenpuls mit Hilfe des Messgeräts NeXus und der Software Biotrace (Mind Media B.V.) erfasst. Die Differenz zwischen maximalem und minimalem Blutvolumen innerhalb eines Herzzyklus nennt man Blutvolumenpuls Amplitude. Dieser Wert sinkt bei psychischer Belastung ab. Umgekehrt kann ein Anstieg als Entspannungsreaktion interpretiert werden.
Um eine gute Vergleichbarkeit der Messdaten der verschiedenen Testgruppen gewährleisten zu können, wurden die Rohdaten der Messung normiert. Dafür wurde der Mittelwert der BVP Amplitude 1 min vor Duftapplikation von allen anderen Messwerten abgezogen. Die Summe der Differenzen ergibt die Änderung der BVP Amplitude in µV.

Probandinnen [2] = experiment: Short stress test (unpleasant pictures, loud drum rhythm) with Self-Assessment Manikin (SAM) rating of nervousness; type: in vivo, Menschen; settings: im Mittel, compared with Placebo-behandelte Probandinnen
Method: Zur Ergänzung der zuvor ermittelten Daten wurde mit den Probandinnen ein kurzer Stresstest durchgeführt, bei dem sie nach einer Anfangsentspannung für 1 min einer schnellen Folge von unangenehmen Bildern (Spinnen, Feuer, etc.) auf einem Fernsehbildschirm ausgesetzt wurden. Die visuellen Reize wurden von einem lauten Trommelrhythmus begleitet. Vor und nach dem Stresstest wurden die Probandinnen gebeten, mit Hilfe eines Self-Assessment Manikins (SAM), [formula] ihre eigene Nervosität zu bewerten.
Beispielhaft sind in Abbildung 2 die Werte des SAM-Fragebogens für Nervosität für 2,6-Dimethyl-7-octen-2-ol und Tetrahydro-6-pentyl-2H-pyran-2-one dargestellt. Abbildung 2 zeigt die Angaben der Probandinnen zu ihrer Nervosität vor und nach dem Stresstest als Differenz (nachher minus vorher).

C=CC(C)CCCC(C)(C)O (stereo not shown) [2,6-Dimethyl-7-octen-2-ol]
Blutvolumenpuls Amplitude (Abbildung 1) (Probandinnen [1]): Anstieg | Blutvolumenpuls Amplitude (Probandinnen [1]): Anstieg | Stress-vermittelte Änderung der Nervosität (SAM) (Probandinnen [2]): geringeren Stress-vermittelten Änderung der Nervosität

CCCCCCC1(C)CCC(=O)O1 (stereo not shown) [5-hexyldihydro-5-methyl-2(3H)-furanone]
Blutvolumenpuls Amplitude (Probandinnen [1]): Beruhigungs- bzw. Entspannungsreaktion | Stress-vermittelte Änderung der Nervosität (SAM) (Probandinnen [2]): geringeren Stress-vermittelten Änderung der Nervosität

CC(=O)CCC=C(C)C [6-Methyl-5-Hepten-2-one]
Blutvolumenpuls Amplitude (Probandinnen [1]): Beruhigungs- bzw. Entspannungsreaktion | Stress-vermittelte Änderung der Nervosität (SAM) (Probandinnen [2]): geringeren Stress-vermittelten Änderung der Nervosität

CCCCCC(C)=O [Heptan-2-one]
Blutvolumenpuls Amplitude (Probandinnen [1]): Beruhigungs- bzw. Entspannungsreaktion | Stress-vermittelte Änderung der Nervosität (SAM) (Probandinnen [2]): geringeren Stress-vermittelten Änderung der Nervosität

CCCCCCCC(C)=O [Nonan-2-one]
Blutvolumenpuls Amplitude (Probandinnen [1]): Beruhigungs- bzw. Entspannungsreaktion | Stress-vermittelte Änderung der Nervosität (SAM) (Probandinnen [2]): geringeren Stress-vermittelten Änderung der Nervosität

CCCCCCC(C)=O [Octan-2-one]
Blutvolumenpuls Amplitude (Probandinnen [1]): Beruhigungs- bzw. Entspannungsreaktion | Stress-vermittelte Änderung der Nervosität (SAM) (Probandinnen [2]): geringeren Stress-vermittelten Änderung der Nervosität

CCCCCCCC=O [Octanal]
Blutvolumenpuls Amplitude (Probandinnen [1]): Beruhigungs- bzw. Entspannungsreaktion | Stress-vermittelte Änderung der Nervosität (SAM) (Probandinnen [2]): geringeren Stress-vermittelten Änderung der Nervosität

CCCCCC1CCCC(=O)O1 (stereo not shown) [Tetrahydro-6-pentyl-2H-pyran-2-one]
Blutvolumenpuls Amplitude (Abbildung 1) (Probandinnen [1]): Anstieg | Änderung der Herzrate (Probandinnen [1]; Duftphase, Zeit 300 s, 0,025% in Propylenglykol): -2,51 bpm | Änderung der Herzrate (Probandinnen [1]; Duftphase, Zeit 315 s, 0,025% in Propylenglykol): -3,27 bpm | Änderung der Herzrate (Probandinnen [1]; Duftphase, Zeit 330 s, 0,025% in Propylenglykol): -2,71 bpm | Änderung der Herzrate (Probandinnen [1]; Duftphase, Zeit 435 s, 0,025% in Propylenglykol): -1,94 bpm | Änderung der Herzrate (Probandinnen [1]; Duftphase, Zeit 540 s, 0,025% in Propylenglykol): -2,91 bpm | Änderung der Herzrate (Probandinnen [1]; Duftphase, Zeit 585 s, 0,025% in Propylenglykol): -2,44 bpm | Änderung der Herzrate (Probandinnen [1]; Kontrollluft (before fragrance application), Zeit 30 s, 0,025% group): -1,26 bpm | Änderung der Herzrate (Probandinnen [1]; Kontrollluft (before fragrance application), Zeit 90 s, 0,025% group): -1,26 bpm | Änderung der Herzrate (Probandinnen [1]; Kontrollluft (before fragrance application), Zeit 135 s, 0,025% group): -1,65 bpm | Änderung der Herzrate (Probandinnen [1]; Kontrollluft (before fragrance application), Zeit 180 s, 0,025% group): -2,16 bpm | Änderung der Herzrate (Probandinnen [1]; Kontrollluft (before fragrance application), Zeit 225 s, 0,025% group): -0,63 bpm | Änderung der Herzrate (Probandinnen [1]; Kontrollluft (before fragrance application), Zeit 285 s, 0,025% group): -0,02 bpm | Blutvolumenpuls Amplitude (Probandinnen [1]): Anstieg | Herzrate (Probandinnen [1]; result in words, im Vergleich zur Placebokontrolle, after fragrance application): Senkung der Herzrate | Stress-vermittelte Änderung der Nervosität (SAM) (Probandinnen [2]): geringeren Stress-vermittelten Änderung der Nervosität
